Where two headings read alike, the source gives them in different places.
Assays:
PYL2 + HAB1 [1] = target: T1, PYL2 + HAB1 (Arabidopsis thaliana, UniProt O80992); assay: AlphaScreen experiment, PYL2 + HAB1; type: binding
T1 construct: made in house; host or cells: E. coli BL21 (DE3)
T1 sequence (O80992 14-188 limits assumed): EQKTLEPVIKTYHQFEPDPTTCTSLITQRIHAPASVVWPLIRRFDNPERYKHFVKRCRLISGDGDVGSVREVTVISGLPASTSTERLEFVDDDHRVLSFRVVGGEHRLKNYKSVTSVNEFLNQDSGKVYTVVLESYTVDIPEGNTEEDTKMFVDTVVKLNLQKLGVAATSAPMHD
T1 sequence (Q9CAJ0 172-511 partner limits assumed): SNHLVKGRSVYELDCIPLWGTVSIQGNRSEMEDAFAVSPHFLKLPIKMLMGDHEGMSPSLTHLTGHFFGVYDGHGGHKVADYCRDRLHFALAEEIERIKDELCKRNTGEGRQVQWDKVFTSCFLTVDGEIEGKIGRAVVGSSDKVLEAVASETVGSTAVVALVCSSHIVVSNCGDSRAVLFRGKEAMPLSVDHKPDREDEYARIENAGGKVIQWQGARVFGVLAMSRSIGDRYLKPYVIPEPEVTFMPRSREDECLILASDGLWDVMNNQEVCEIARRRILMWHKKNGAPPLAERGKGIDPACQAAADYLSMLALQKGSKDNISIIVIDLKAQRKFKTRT
Description: (§1) After incubating for 1.5 hours at room temperature in the dark, it was placed into an Envision Plate Reader (available from Perkin Elmer) under the programmed AlphaScreen procedure for readings.

PYL7 + HAB1 = target: T2, PYL7 + HAB1 (Arabidopsis thaliana, UniProt Q1ECF1); assay: AlphaScreen experiment, PYL7 + HAB1; type: binding
T2 construct: made in house; host or cells: E. coli BL21 (DE3)
T2 sequence (Q1ECF1 1-211): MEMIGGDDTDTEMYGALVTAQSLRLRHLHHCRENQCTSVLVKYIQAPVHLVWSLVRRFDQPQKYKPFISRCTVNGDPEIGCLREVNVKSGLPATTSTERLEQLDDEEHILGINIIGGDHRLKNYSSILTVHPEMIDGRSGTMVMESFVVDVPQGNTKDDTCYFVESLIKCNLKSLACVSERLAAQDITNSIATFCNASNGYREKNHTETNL
T2 sequence (Q9CAJ0 172-511 partner limits assumed): T1 sequence (Q9CAJ0 172-511 partner limits assumed)
Description: as §1

PYR1 + HAB1 = target: T3, PYR1 + HAB1 (Arabidopsis thaliana, UniProt O49686); assay: AlphaScreen experiment, PYR1 + HAB1; type: binding; settings: column 2
T3 sequence (O49686 1-191): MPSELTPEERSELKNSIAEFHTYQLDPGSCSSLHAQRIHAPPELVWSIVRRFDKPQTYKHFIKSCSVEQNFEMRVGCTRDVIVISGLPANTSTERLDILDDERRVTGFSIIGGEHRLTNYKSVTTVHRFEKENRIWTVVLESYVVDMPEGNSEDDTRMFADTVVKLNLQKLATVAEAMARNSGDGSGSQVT
T3 sequence (Q9CAJ0 172-511 partner): T1 sequence (Q9CAJ0 172-511 partner limits assumed)
Description: as §1

[2] = test system: Arabidopsis thaliana Col-0 ecotype seeds; assay: Seed germination, Col-0; type: in vivo; settings: 1 μM; six days after seeding
Text: (§2) Two lines of plant were sown simultaneously on a single medium of 6 cm diameter, with 15 seeds sown for each line and 4 replicates for each compound. […]

[3] = test system: pyr1;pyl1;pyl4 triple mutant seeds; assay: Seed germination, PYR/PYL triple mutant; type: in vivo, Arabidopsis thaliana; settings: 1 μM; six days after seeding
Text: as §2

[4] = test system: Arabidopsis ABA synthesis defective mutant aba2-1; type: in vivo, Arabidopsis thaliana; settings: 5 μM sprayed; after two days; vs DMSO
soybean Williams 82 = assay: Soybean leaf transpiration experiment (thermal imaging); type: in vivo
Description: After three weeks of continuous watering, 0.05% tween-20 and corresponding concentrations of DMSO (control)/compound (+)-ABA/0918/1127 were sprayed onto the plants in a single administration with an amount of 1.2 ml/pot. Images were taken daily using the FLIR A655sc thermal imaging camera at the same time before and after spraying. The Williams 82 ecotype was used in soybean leaf transpiration experiments for compounds 0604c, 0918 and 1127 and was long-day cultured at 26° C. After the plants grew and had 3 leaves in each of 3 groups, 0.05% tween-20 and 50 μM DMSO (control)/(+)-ABA/0604c/0918/1127 compounds were sprayed in a single administration with an amount of 4 ml/pot. Images were taken daily using the FLIR A655sc thermal imaging camera at the same time before and after spraying.
(§3) Leaf transpiration experiments of soybean and cotton for compound 0720B were carried out at 26° C. with long-day lighting. 16 days and 23 days after sowing, a solution containing 0.1% tween-20 and corresponding concentration of (+)-ABA, or 0720B compound or 0.1% Tween-20 and 0.05% DMSO (control) was sprayed in an amount of 4 ml/pot. Images were taken daily using the FLIR A655sc thermal imaging camera at the same time before and after spraying.

cotton = assay: Cotton leaf transpiration experiment (thermal imaging); type: in vivo; settings: 50 μM; after two days; vs DMSO
Description: as §3

[5] = test system: Arabidopsis Col-0 ecotype; assay: Soil drought experiment, Arabidopsis; type: in vivo, Arabidopsis thaliana
Description: Seeds of Arabidopsis Col-0 ecotype were sterilized with NaClO and then sown on ½ MS solid medium at 4° C. for 3 days of vernalization. After 6 days of growing, the well-grown seedlings having uniform size were selected and transferred into 8×7×6 cm^3 pots. Each pot was filled with the same weight of soil and the same number of plants (six plants) was planted to reduce experimental error. All the pots were subjected to a short-day culture at 22° C. After two weeks, watering was stopped for drought treatment. […] The position of the flowerpot was changed every day during the process of drought to reduce the error caused by environmental factors. During the whole drought period, the solution was sprayed twice in total and photos were recorded regularly. The watering was resumed in about three weeks.

PYL2 + HAB1 [6] = target: T1, PYL2 + HAB1; assay: HAB1 phosphatase activity assay with PYL2, SnRK2.6 phosphorylated polypeptide substrate; type: biochemical
Description: (§4) HAB1 Phosphatase Activity Assay […] The reaction system was incubated at room temperature for 30 minutes, followed by a further reaction for 30 minutes after adding an 11-amono acid phosphorylated polypeptide as a substrate. The phosphorylated polypeptide consisting of amino acid 170-180 of SnRK2.6 protein kinase (sequence […]) was purchased from […] company, wherein phosphorylated […] was a known HAB1 dephosphorylation target site. After 30 minutes, chromogenic reagent (purchased from BioVision) was added and the absorbance at 650 nm was read on a microplate reader (Molecular Devices).

[7] = test system: ABA-induced environmental stress-related gene expression; assay: Gene expression analysis (fluorescence quantitative PCR); type: in vivo, Arabidopsis thaliana (Col-0); settings: for expression levels of most ABA-induced stress-related genes compared with ABA: 10 μM, 6 hours of treatment, 10-day-aged seedlings
Description: The whole plant or leaves were taken, and RNA extraction was carried out by using conventional methods. After reverse transcription, the fluorescence quantitative PCR was carried out. Triple biological samples were taken for each treatment which was performed twice. The ACT7 gene was used as a reference gene.

[8] = test system: PYR/PYL receptors (PYR1, PYL1, PYL2 and PYL7)-HAB1 complex; assay: Broad spectrum experiment on PYR/PYL receptors (HAB1 phosphatase activity); type: biochemical, Arabidopsis; settings: 1 μM
Description: as §4

[9] = test system: soybean GmPYL3 and GmPYL6 + Arabidopsis AtHAB1; assay: AlphaScreen experiment with soybean GmPYL receptors; type: binding; settings: FIG. 9
Description: as §1

[10] = 5 μM sprayed, 18 days after drought
[11] = 10 μM sprayed, after 17 days of drought
[12] = number in brackets, read-out: Half maximum effect concentration EC50 (PYL2 + HAB1)
[13] = number in brackets, read-out: Half maximum effect concentration EC50 (PYL7 + HAB1)
[14] = number in brackets, read-out: Half maximum effect concentration EC50 (PYR1 + HAB1)

SMILES: CC1=CC(=O)CC(C)(C)[C@@]1(O)/C=C/C(C)=C\C(=O)O [ABA, Abscisic Acid, reference compound]
- EC50 (PYL2 + HAB1 [1]; Half maximum effect concentration EC50 (PYL2 + HAB1), class, class symbol): 100 to 1000 nM
- EC50 (PYL2 + HAB1 [1]; Half maximum effect concentration EC50 (PYL2 + HAB1), number in brackets): 410 nM
- EC50 (PYL7 + HAB1; Half maximum effect concentration EC50 (PYL7 + HAB1), class, class symbol): 1000 to 10000 nM
- EC50 (PYL7 + HAB1; Half maximum effect concentration EC50 (PYL7 + HAB1), number in brackets): 1070 nM
- EC50 (PYR1 + HAB1; Half maximum effect concentration EC50 (PYR1 + HAB1), class, class symbol): 100 to 1000 nM
- EC50 (PYR1 + HAB1; Half maximum effect concentration EC50 (PYR1 + HAB1), number in brackets): 700 nM
- germination of Col-0 ecotype seeds [2]: could still inhibit germination of Col-0 ecotype seeds
- germination of pyr1;pyl1;pyl4 triple mutant seeds [3]: could not inhibit germination of PYR/PYL triple mutant pyr1;pyl1;pyl4 seeds
- leaf surface temperature [4]: higher than that of DMSO control group
- leaf temperature (soybean Williams 82; 50 μM sprayed, 0.2 μmol per plant, after three days, vs DMSO): had no difference with the control
- leaf temperature (soybean Williams 82; two days after spraying, 0720B 20 μM or 50 μM, ABA 50 μM): had no difference from that in the control group
- leaf temperature (cotton): had no difference from that in the control group
- plant survival [5, 10]: died because of drought
- plant survival [5, 11]: died because of drought

SMILES: CCCN1C(=O)CCc2cc(NS(=O)(=O)Cc3ccc(C)cc3)ccc21 [AM1, 4-methyl-N-(1,2,3,4-tetrahydro-2-oxo-1-propyl-6-quinolinyl)-benzene methanesulfonamide, reference compound]
- EC50 (PYL2 + HAB1 [1]; [12]): 480 nM
- inhibition ratio Z of HAB1 relative enzyme activity (PYL2 + HAB1) (PYL2 + HAB1 [6]; at 0.1 μM, Z relative to ABA): 86%
- germination of Col-0 ecotype seeds [2]: could still inhibit germination of Col-0 ecotype seeds
- germination of pyr1;pyl1;pyl4 triple mutant seeds [3]: could not inhibit germination of PYR/PYL triple mutant pyr1;pyl1;pyl4 seeds
- leaf surface temperature [4]: higher than that of DMSO control group
- plant survival [5, 11]: died because of drought
- expression levels of most ABA-induced stress-related genes compared with ABA [7]: lower than the level in the plants treated with 10 μM ABA

SMILES: CCCN1C(=O)CCc2cc(NS(=O)(=O)Cc3ccc(C)c(F)c3)ccc21 [Compound 0604c]
- EC50 (PYL2 + HAB1 [1]; [12]): 40 nM
- EC50 (PYL7 + HAB1; [13]): 30 nM
- EC50 (PYR1 + HAB1; [14]): 40 nM
- binding to PYR/PYL receptors [8]: could bind with PYR1/PYL1/PYL2/PYL3/PYL4/PYL5/PYL7/PYL10
- binding ability with PYR1/PYL1/PYL2/PYL7 compared with ABA ([8]; FIG. 1, FIG. 13): significantly higher than those of ABA
- affinities for soybean GmPYL proteins compared with ABA [9]: significantly higher affinities
- germination of Col-0 ecotype seeds [2]: could still inhibit germination of Col-0 ecotype seeds
- germination of pyr1;pyl1;pyl4 triple mutant seeds [3]: could not inhibit germination of PYR/PYL triple mutant pyr1;pyl1;pyl4 seeds
- plant survival [5, 11]: still survived
- expression levels of most ABA-induced stress-related genes compared with ABA [7]: significantly exceeded the level in the plants treated with 10 μM ABA
- expression level of relevant genes compared with ABA ([7]; one day after treatment, ABA 10 μM): significantly higher than that in the plants treated with 10 μM ABA

SMILES: CCCn1c(=O)ccc2cc(NS(=O)(=O)Cc3c(F)c(F)c(C)c(F)c3F)ccc21 [Compound 0717]
- expression levels of most ABA-induced stress-related genes compared with ABA [7]: significantly exceeded the level in the plants treated with 10 μM ABA

SMILES: CCCN1C(=O)CC(C)(C)c2cc(NS(=O)(=O)Cc3c(F)c(F)c(C)c(F)c3F)ccc21 [Compound 0825A]
- inhibition of the dephosphorylation effect of HAB1 on SnRK2.6 phosphorylated polypeptide compared with ABA (PYL2 + HAB1 [6]; PYL2 receptor, same concentration as ABA): significantly better than that of ABA at the same concentration

SMILES: CCCN1C(=O)CCc2cc(NS(=O)(=O)Cc3ccc(Cl)cc3F)ccc21 [Compound 0925]
- EC50 (PYL2 + HAB1 [1]; [12]): 60 nM
- EC50 (PYR1 + HAB1; [14]): 40 nM

SMILES: CCCN1C(=O)CCc2cc(NS(=O)(=O)Cc3ccc(C(F)(F)F)c(F)c3)ccc21 [Compound 1020A]
- EC50 (PYL2 + HAB1 [1]; [12]): 80 nM
- EC50 (PYR1 + HAB1; [14]): 140 nM

SMILES: CCCN1C(=O)CCc2cc(NS(=O)(=O)Cc3c(F)c(F)c(C(F)(F)F)c(F)c3F)ccc21 [Compound 1020B]
- EC50 (PYL2 + HAB1 [1]; [12]): 80 nM
- EC50 (PYR1 + HAB1; [14]): 50 nM

SMILES: CCCN1C(=O)CCc2cc(NS(=O)(=O)Cc3ccc(C)c(Cl)c3)ccc21 [Compound 1103B]
- EC50 (PYL2 + HAB1 [1]; [12]): 50 nM
- EC50 (PYL7 + HAB1; [13]): 150 nM
- EC50 (PYR1 + HAB1; [14]): 120 nM

SMILES: CCCN1C(=O)CCc2cc(NS(=O)(=O)Cc3ccc(C)cc3F)ccc21 [Compound 1125A]
- EC50 (PYL2 + HAB1 [1]; [12]): 30 nM
- EC50 (PYL7 + HAB1; [13]): 40 nM
- EC50 (PYR1 + HAB1; [14]): 50 nM

SMILES: CCCN1C(=O)CCc2cc(NS(=O)(=O)Cc3cc(F)c(C)c(F)c3)ccc21 [Compound 1125B]
- EC50 (PYL2 + HAB1 [1]; [12]): 20 nM
- EC50 (PYL7 + HAB1; [13]): 20 nM
- EC50 (PYR1 + HAB1; [14]): 20 nM
- plant survival [5, 10]: still survived

Reference: US10842151B2, “Small molecule compound for enhancing plant stress resistance” (SHANGHAI INSTITUTES FOR BIOLOGICAL SCIENCES, CHINESE …, priority 2015, dated 2020)
